From patent publication US20090270435A1 (priority 2006, published 2009)

Assays:
ACC1 from rat liver = molecular target: T1, ACC1 from rat liver (Rattus norvegicus, UniProt P11497); assay: Direct inhibition of ACC1 activity (14C-bicarbonate incorporation); assay type: biochemical; conditions: ACC1 from rat liver
T1 construct: The livers (for ACC1 preparation) or skeletal muscle tissue (for ACC2 preparation) are removed; from tissue; host or cells: liver of male CD rats (fasted, then fed a high sucrose diet)
How it was run: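 ACC1 partially purified from livers of fasted/sucrose-refed male rats by PEG and ammonium sulfate fractionation, then preincubated 30 min at 37°C with 10 mM citrate and 1.0 mM MgCl2. Reaction ran 7 min at 37°C, stopped with HCl; acid-stable radioactivity counted by scintillation; HCl-first tubes served as blanks.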

[1] = tested on: hepatic fatty acid synthesis; assay: Measurement of fatty acid synthesis inhibition in experimental animals ([2-14C]acetate into saponifiable lipids in liver); assay type: in vivo, Sprague Dawley rats; conditions: Rattus norvegicus; for inhibition at 30 mg/kg: po, read-out: Percent Inhibition at 30 mg/kg
Excerpt: The ACC inhibitory activity of compounds of this invention, and the salts of such compounds, can be confirmed in vivo by evaluation of their ability to inhibit hepatic fatty acid production and to stimulate whole body fatty acid oxidation using methods based on standard procedures. For example, since ACC catalyzes the first committed step in the biosynthesis of fatty acids, the in vivo activity of these compounds can be confirmed by measuring the ability of the compounds of this invention, and the salts of such compounds, to prevent the formation of radio labeled fatty acids from radio labeled acetate in the livers of treated mammals.
[1] Measurement of fatty acid synthesis inhibition in experimental animals. Incorporation of [2-^14C]acetate into saponifyable lipids in the livers of mammals (e.g. CDI mice, C57BI/6J-ob/ob mice, Sprague Dawley rats (available from Charles River Boston, Mass. or Jackson Labs Bar Harbor, Me.)) can be measured essentially as previously described for assessment of hepatic sterol synthesis (Harwood et al, Biochem. Pharmacol, 40: 1281-1293, 1990; Harwood et al. Biochem. Pharmacol. 53: 839-864, 1997) with the following modifications to allow for assessment fatty acid synthesis. For example, Sprague Dawley rats are administered a 0.1 ml per 40 g body weight of an oral bolus of vehicle (e.g. water or 0.5% methylcellulose in water)±test compound. One to four hours after compound administration, animals receive an intraperitoneal injection of 0.5 ml of [2-^14C]acetate (64 μCi/ml; 57 mCi/mmol). One hour after radiolabel administration, animals are sacrificed by CO2 asphyxiation and two, 0.75 g liver pieces are removed and saponified at […]. for 120 minutes in 1.5 ml of 2.5 M NaOH. After saponification, 2.5 ml of absolute EtOH are added to each sample and the solutions are mixed and allowed to stand overnight. Petroleum ether, 4.8 ml, is then added to each sample and the mixtures are first shaken vigorously for 2 minutes then centrifuged at 1000×g in a bench-top Sorvall®9 for 5 minutes. The resultant petroleum ether layers, which contain the nonsaponifyable lipids (e.g. cholesterol, post-squalene cholesterol precursors and other non-saponifiable lipids), are removed and discarded. The remaining aqueous layer (containing fatty acid sodium salts) is acidified to pH<2 by addition of 0.6 ml of 12 M HCl and extracted two times with 4.8 ml of petroleum ether. The pooled organic fractions (containing protonated fatty acids) are transferred to liquid scintillation vials, dried under nitrogen, dissolved in 7 ml of Aqua sol liquid scintillation fluid, and assessed for radioactivity using a liquid scintillation counter. Inhibition of fatty acid synthesis by the test compound is expressed as the concentration required to reduce by 50% the dpm [2-^14C]acetate incorporated into saponifiable lipids during the 1 hour interval between radio labeled acetate injection and CO2 asphyxiation.
Some compounds of the present were evaluated for inhibition of fatty acid synthesis as described above. As shown below, these compounds were all observed to inhibit the synthesis of fatty acids in vivo.

[2] = molecular target: T2, ACC2 from rat skeletal muscle (Rattus norvegicus, UniProt Q1HEC0); assay: Direct inhibition of ACC2 activity (14C-bicarbonate incorporation); assay type: biochemical; conditions: ACC2 from rat skeletal muscle
T2 construct: The livers (for ACC1 preparation) or skeletal muscle tissue (for ACC2 preparation) are removed; from tissue; host or cells: skeletal muscle of male CD rats (fasted, then fed a high sucrose diet)
Experimental: For example direct inhibition of ACC1 and ACC2 activity, for compounds of Formula (1) were determined using preparations of ACC1 from rat liver and ACC2 from rat skeletal muscle.
[1] Preparation of ACC1 and ACC2. ACC1 was obtained from rat liver and ACC2 was obtained from rat skeletal muscle based upon standard procedures such as those described by Thampy and Wakil (J. Biol. Chem. 260: 6318-6323; 1985) using the following method.
Male CD rats weighing 150-200 g are fasted for 2 days and then fed a high sucrose diet (AIN-76A rodent diet; Cat # D10001, Research Diets Inc., New Brunswick, N.J.), for 3 days at which time they are sacrificed by CO2 asphyxiation. The livers (for ACC1 preparation) or skeletal muscle tissue (for ACC2 preparation) are removed, rinsed in ice-cold phosphate-buffered saline (PBS), and homogenized in 5 volumes of homogenization buffer (50 mM potassium phosphate, pH 7.5, 10 mM EDTA, 10 mM 2-mercaptoethanol, 2 mM benzamidine, 0.2 mM phenylmethylsulfonylfluoride (PMSF), 5 mg/L each leupeptin, aprotinin, and antitrypsin) in a Waring® blender for 1 minute at 4° C. All subsequent operations are carried out at 4° C. The homogenate is made 3% with respect to polyethylene glycol (PEG) by the addition of 50% PEG solution and centrifuged at 20,000×g for 15 minutes. The resulting supernatant is adjusted to 5% PEG with the addition of 50% PEG solution and stirred for 5 minutes. The pellet (contains ACC activity) is collected by centrifugation at 20,000×g for 20 minutes, rinsed with Ice-cold doubly distilled water to remove excess PEG and re-suspended in one-fourth the original homogenate volume with homogenization buffer. Ammonium sulfate (200 g/liter) is slowly added with stirring. After 45 minutes the enzyme is collected by centrifugation for 30 minutes at 20,000×g, re-suspended in 10 ml of 50 mM HEPES, pH7.5, 0.1 mM DTT, 1.0 mM EDTA, and 10% glycerol and desalted on a Sephadex™ G-25 column (2.5 cm-x 50 cm) (Pharmacia, Piscataway N.J. now GE Healthcare) […] equilibrated with the same buffer. The desalted enzyme preparation is stored in aliquots at −70° C. Immediately prior to use, frozen ACC1 or ACC2 aliquots are thawed, diluted to 500 μg/ml in buffer containing 50 mM HEPES, pH7.5, 1.0 mM MgCl2, 10 mM tripotassium citrate, 2.0 mM dithiothreitol (DTT), and 0.75 mg/ml fatty acid-free bovine serum albumin (BSA) and pre-incubated at 37° C. for 30 minutes.
[2] Measurement of ACC inhibition. The procedures for measuring ACC1 inhibition and ACC2 inhibition are identical except for the source of the isozyme. For measurement of ACC activity and assessment of ACC inhibition, test compounds are dissolved in dimethylsulfoxide (DMSO) and 1 μL aliquots are placed in 0.5 ml polypropylene tubes. Control tubes contain 1 μL of DMSO alone. Tubes are incubated at 37° C. in a constant temperature water bath. […] The reaction is then initiated by the addition of 10 μL of preincubated ACC fraction prepared as described above. After 7 minutes the reaction is terminated by the addition of 50 μL of 6N HCl and a 150 μL aliquot of the reaction mixture is transferred to glass scintillation vials and evaporated to dryness at 90° C. for at least 1 hour. The dried vials are then cooled, 0.5 ml of water and 5.5 ml of Ready Safe liquid scintillation fluid (Beckman Coulter Inc., Fullerton, Calif.) are added, and the radioactivity is determined using a liquid scintillation counter. Tubes that received HCl before ACC served as blanks.
[3] Specificity for ACC1 vs ACC2 inhibition. The specificity of a compound for Inhibiting ACC1 vs ACC2 can be determined by comparing the concentration of test compound required to inhibit 50% of the activity contained in an aliquot of ACC1 as compared with the concentration of the same compound required to inhibit 50% of the activity of an aliquot of ACC2.

T2 sequence (Q1HEC0 17-2455): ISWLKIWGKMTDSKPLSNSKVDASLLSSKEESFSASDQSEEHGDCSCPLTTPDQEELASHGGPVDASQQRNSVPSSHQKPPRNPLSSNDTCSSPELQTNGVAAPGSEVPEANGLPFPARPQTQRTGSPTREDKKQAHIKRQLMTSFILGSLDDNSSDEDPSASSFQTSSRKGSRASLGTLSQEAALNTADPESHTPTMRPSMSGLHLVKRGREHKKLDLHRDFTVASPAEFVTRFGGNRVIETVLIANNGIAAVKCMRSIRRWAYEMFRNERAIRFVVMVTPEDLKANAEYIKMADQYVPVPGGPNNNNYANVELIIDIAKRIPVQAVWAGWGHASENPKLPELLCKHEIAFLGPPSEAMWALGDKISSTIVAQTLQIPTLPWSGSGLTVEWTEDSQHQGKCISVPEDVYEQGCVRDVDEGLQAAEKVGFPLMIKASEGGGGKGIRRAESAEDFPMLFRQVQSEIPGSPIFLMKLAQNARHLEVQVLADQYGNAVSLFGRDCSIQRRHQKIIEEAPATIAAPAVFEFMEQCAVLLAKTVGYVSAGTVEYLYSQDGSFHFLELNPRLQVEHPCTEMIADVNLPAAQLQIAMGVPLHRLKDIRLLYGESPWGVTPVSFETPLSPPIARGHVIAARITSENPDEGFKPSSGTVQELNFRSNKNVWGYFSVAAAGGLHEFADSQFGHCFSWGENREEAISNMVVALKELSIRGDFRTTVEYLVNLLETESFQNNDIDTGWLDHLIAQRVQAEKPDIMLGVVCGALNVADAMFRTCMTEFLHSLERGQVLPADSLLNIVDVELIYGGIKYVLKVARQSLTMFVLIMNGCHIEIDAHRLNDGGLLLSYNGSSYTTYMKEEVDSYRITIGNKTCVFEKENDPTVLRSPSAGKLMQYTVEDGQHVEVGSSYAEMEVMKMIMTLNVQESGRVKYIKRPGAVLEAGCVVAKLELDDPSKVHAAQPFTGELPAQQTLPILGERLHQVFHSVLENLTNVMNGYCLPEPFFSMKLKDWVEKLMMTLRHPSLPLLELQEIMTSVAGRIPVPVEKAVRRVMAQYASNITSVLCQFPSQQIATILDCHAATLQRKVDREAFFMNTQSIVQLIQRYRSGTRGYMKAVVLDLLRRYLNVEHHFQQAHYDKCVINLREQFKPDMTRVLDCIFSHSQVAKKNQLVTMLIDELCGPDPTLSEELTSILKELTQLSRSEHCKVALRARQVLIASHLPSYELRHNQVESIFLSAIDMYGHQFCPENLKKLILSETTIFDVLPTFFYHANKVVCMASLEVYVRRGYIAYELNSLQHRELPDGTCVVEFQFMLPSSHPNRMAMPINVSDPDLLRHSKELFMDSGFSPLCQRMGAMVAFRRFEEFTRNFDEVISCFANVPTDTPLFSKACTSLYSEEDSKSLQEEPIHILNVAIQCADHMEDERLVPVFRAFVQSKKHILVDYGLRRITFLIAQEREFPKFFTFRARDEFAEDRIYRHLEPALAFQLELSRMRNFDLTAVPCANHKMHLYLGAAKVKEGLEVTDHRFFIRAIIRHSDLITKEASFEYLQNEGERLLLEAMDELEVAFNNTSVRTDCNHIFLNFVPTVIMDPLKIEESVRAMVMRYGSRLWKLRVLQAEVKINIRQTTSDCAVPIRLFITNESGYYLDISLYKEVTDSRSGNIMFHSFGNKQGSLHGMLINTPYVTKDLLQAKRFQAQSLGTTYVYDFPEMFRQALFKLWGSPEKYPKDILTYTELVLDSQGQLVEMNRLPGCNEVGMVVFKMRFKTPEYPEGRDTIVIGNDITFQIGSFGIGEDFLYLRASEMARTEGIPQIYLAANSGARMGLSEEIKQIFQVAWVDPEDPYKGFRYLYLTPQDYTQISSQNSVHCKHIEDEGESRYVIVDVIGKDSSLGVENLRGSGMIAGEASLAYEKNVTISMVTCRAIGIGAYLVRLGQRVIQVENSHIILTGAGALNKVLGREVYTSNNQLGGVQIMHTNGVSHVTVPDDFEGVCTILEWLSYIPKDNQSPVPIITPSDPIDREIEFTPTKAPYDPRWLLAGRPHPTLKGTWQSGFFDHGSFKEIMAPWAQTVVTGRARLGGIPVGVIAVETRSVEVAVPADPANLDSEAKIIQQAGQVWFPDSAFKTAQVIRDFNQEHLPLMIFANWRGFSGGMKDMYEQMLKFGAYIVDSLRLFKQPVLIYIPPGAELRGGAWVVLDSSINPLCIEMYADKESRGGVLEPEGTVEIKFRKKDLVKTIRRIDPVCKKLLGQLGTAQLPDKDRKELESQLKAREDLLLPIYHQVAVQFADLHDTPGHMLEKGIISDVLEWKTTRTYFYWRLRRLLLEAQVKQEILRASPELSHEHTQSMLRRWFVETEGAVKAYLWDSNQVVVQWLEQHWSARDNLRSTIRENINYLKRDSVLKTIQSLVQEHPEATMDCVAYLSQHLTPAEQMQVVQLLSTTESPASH

Row | Compound | IC50 (ACC1 from rat liver) | IC50 [2] | inhibition at 30 mg/kg [1] | inhibition at 10 mg/kg ([1]; inhibition of fatty acid synthesis in vivo, 10 mg/kg, oral bolus, read-out: Percent Inhibition at 10 mg/kg)
1 | Cc1cc2c(cc1Cl)C(=O)CC1(CCN(C(=O)c3ccc4[nH]ncc4c3)CC1)O2 [Ex. E2, 6-chloro-1′-(1H-indazol-5-ylcarbonyl)-7-methylspiro[chromene-2,4′-piperidin]-4(3H)-one] | 108 nM |  | 30.7% | 
2 | Cc1cc2c(cc1C)C(=O)CC1(CCN(C(=O)c3ccc4[nH]ncc4c3)CC1)O2 [Ex. E1, 1′-(1H-indazol-5-ylcarbonyl)-6,7-dimethylspiro[chromene-2,4′-piperidin]-4(3H)-one] | 96.5 nM |  | 30.9% | 
3 | COc1ccc2c(c1)C(=O)CC1(CCN(C(=O)c3cc(C)c4[nH]ncc4c3)CC1)O2 [Ex. A16, 6-methoxy-1′-[(7-methyl-1H-indazol-5-yl)carbonyl]spiro[chromene-2,4′-piperidin]-4(3H)-one] | 55.1 nM |  | 83% | 68%
4 | Cc1cc(C(=O)N2CCC3(CC2)CC(=O)c2cc(Cl)c(F)cc2O3)cc2cn[nH]c12 [Ex. A21, 6-chloro-7-fluoro-1′-[(7-methyl-1H-indazol-5-yl)carbonyl]spiro[chromene-2,4′-piperidin]-4(3H)-one] | 96.6 nM |  | 59.5% | 

The next lines start with results.

Row | IC50 (ACC1 from rat liver) | IC50 [2] | Compound | inhibition at 30 mg/kg [1] | inhibition at 10 mg/kg ([1]; inhibition of fatty acid synthesis in vivo, 10 mg/kg, oral bolus, read-out: Percent Inhibition at 10 mg/kg)
5 | 45 nM |  | Cc1cc2c(cc1Cl)C(=O)CC1(CCN(C(=O)c3cc(C)c4[nH]ncc4c3)CC1)O2 [Ex. A13, 6-chloro-7-methyl-1′-[(7-methyl-1H-indazol-5-yl)carbonyl]spiro[chromene-2,4′-piperidin]-4(3H)-one] | 64% | 
6 | 23.5 nM | 36.4 nM | Cc1cc2c(cc1C)C(=O)CC1(CCN(C(=O)c3cc(C)c4[nH]ncc4c3)CC1)O2 [Ex. A1, 6,7-dimethyl-1′-[(7-methyl-1H-indazol-5-yl)carbonyl]spiro-[chromene-2,4′-piperidin]-4(3H)-one] | 35.4% | 
7 | 41.9 nM |  | Cc1cc(C(=O)N2CCC3(CC2)CC(=O)c2cc(OC(F)(F)F)ccc2O3)cc2cn[nH]c12 [Ex. A12, 1′-[(7-methyl-1H-indazol-5-yl)carbonyl]-6-(trifluoromethoxy)spiro[chromene-2,4-piperidin]-4(3H)-one] | 38.7% | 
8 | 37.4 nM |  | COc1ccc2c(c1F)C(=O)CC1(CCN(C(=O)c3cc(C)c4[nH]ncc4c3)CC1)O2 [Ex. A9, 5-fluoro-6-methoxy-1′-[(7-methyl-1H-indazol-5-yl)carbonyl]spiro[chromene-2,4′-piperidin]-4(3H)-one] | 33.5% | 
